{"source": "paper PMC11044217", "about": "(ACS Omega, 2024)", "key": {"hAChE": {"molecular_target": "hAChE (Homo sapiens, UniProt P22303)", "sequence (P22303 32-617 isoform P22303-2 limits assumed)": "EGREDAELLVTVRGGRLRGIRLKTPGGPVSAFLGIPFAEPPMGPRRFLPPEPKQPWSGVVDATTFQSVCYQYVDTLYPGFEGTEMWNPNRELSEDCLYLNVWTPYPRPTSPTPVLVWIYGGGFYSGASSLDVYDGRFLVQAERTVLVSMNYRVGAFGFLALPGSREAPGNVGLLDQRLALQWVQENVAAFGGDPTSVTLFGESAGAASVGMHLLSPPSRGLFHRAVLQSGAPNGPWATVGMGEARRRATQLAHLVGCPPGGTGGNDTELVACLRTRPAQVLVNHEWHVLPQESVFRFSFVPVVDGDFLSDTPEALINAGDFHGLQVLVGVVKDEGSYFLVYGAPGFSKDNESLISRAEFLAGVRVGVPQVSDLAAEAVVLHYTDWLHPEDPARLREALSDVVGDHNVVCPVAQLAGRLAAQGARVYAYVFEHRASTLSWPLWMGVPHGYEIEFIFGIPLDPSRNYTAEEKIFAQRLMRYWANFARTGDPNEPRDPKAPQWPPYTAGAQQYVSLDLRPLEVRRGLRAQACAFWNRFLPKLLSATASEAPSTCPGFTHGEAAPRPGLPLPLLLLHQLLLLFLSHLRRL", "experiment": "hAChE inhibition, Ellman's colorimetric method", "type": "biochemical"}, "hBChE": {"molecular_target": "hBChE (Homo sapiens, UniProt P06276)", "sequence (P06276 29-602)": "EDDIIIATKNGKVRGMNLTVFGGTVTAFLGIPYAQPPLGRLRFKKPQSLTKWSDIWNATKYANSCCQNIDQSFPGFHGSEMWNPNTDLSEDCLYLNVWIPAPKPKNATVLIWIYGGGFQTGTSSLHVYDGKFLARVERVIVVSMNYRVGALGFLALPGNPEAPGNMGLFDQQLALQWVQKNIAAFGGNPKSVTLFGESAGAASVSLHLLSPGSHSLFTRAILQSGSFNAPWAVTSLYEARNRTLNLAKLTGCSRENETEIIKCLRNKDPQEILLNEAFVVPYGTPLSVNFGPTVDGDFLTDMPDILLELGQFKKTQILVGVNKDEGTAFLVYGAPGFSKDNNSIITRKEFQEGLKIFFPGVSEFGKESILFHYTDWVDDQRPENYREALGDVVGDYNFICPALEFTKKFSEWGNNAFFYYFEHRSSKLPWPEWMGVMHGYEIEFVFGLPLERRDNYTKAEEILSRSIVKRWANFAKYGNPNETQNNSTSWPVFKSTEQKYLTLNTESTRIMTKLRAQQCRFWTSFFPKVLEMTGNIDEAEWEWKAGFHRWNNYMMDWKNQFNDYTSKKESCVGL", "experiment": "hBChE inhibition, Ellman's colorimetric method", "type": "biochemical", "settings": "IC50 ± SEM hBChE, n = 3"}, "PAS of hAChE": {"molecular_target": "PAS of hAChE (Homo sapiens, UniProt P22303)", "sequence (P22303 32-614)": "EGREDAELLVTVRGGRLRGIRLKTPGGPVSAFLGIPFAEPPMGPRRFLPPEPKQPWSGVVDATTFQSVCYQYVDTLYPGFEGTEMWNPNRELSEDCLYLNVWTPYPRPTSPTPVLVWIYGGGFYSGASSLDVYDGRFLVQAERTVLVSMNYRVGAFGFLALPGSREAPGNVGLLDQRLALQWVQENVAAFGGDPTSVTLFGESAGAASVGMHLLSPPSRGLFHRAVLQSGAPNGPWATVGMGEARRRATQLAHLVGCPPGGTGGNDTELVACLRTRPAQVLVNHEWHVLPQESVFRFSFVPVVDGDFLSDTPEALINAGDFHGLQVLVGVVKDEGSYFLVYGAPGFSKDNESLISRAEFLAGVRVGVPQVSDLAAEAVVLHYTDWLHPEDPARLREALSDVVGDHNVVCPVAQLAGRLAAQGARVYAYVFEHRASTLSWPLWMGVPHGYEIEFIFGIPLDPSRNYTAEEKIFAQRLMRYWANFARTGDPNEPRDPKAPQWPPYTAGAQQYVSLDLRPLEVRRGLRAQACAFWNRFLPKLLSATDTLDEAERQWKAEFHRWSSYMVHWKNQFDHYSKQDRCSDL", "experiment": "Propidium iodide displacement assay", "type": "binding", "settings": "for inhibition at 10 µM: read-out: (%) PAS-AChE propidium iodide displacement (% inhibition) at 10 μM; for inhibition at 50 µM: read-out: (%) PAS-AChE propidium iodide displacement (% inhibition) at 50 μM"}, "hBACE-1": {"molecular_target": "hBACE-1 (Homo sapiens, UniProt P56817)", "sequence (P56817 46-501)": "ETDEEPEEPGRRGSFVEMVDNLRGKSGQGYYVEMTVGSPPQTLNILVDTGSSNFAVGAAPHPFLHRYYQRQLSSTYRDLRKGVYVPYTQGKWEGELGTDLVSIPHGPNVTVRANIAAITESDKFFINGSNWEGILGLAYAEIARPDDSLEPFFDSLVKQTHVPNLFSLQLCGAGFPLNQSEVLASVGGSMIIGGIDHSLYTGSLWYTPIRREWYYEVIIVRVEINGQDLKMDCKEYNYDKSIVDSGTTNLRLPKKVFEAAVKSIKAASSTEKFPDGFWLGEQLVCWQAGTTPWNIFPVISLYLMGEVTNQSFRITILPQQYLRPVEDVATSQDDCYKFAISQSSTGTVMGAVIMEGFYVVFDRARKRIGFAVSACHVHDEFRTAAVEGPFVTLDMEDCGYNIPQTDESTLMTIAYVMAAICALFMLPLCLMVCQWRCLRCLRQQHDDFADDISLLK", "experiment": "BACE-1 inhibition, FRET-based fluorometric assay", "type": "biochemical"}, "[1]": {"experiment": "DPPH radical scavenging assay", "settings": "in methanol"}, "catalase (CAT)": {"tested_on": "catalase (CAT)", "experiment": "Ex vivo catalase", "type": "in vivo, Swiss albino mice", "settings": "hippocampal brain homogenate"}, "in vitro": {"experiment": "in vitro", "settings": "pig, PAMPA, pH 7.4"}, "AChE": {"molecular_target": "T1, AChE (Mus musculus, UniProt P21836)", "T1 sequence (P21836 32-614)": "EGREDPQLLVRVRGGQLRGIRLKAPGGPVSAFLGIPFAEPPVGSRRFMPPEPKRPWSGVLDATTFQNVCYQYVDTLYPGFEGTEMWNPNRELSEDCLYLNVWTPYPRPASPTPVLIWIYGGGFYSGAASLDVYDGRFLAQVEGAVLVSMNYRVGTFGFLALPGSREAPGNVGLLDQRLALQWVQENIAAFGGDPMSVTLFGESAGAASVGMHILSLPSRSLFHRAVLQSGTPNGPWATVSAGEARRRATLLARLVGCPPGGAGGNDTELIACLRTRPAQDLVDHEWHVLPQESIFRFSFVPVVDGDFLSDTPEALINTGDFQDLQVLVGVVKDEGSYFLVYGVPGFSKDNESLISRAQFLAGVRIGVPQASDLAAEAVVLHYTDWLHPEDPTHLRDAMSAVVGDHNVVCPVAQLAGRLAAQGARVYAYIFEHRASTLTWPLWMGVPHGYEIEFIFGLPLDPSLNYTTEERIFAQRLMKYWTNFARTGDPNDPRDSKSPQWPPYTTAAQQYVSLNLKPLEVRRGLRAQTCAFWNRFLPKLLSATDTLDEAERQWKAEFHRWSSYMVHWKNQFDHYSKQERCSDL", "experiment": "Ex vivo AChE level in hippocampal brain homogenate", "design": "species or system Swiss albino mice", "settings": "in comparison with scopolamine-treated group"}, "Swiss albino mice": {"tested_on": "Swiss albino mice", "experiment": "Scopolamine-induced Y-maze test", "type": "in vivo", "settings": "scopolamine-induced cognitive dysfunction mice model, p < 0.001"}}}
{"smiles": "c1ccc(-c2nnc(CN3CCN(c4ccccc4)CC3)o2)cc1", "note": "[5AA, 2-Phenyl-5-((4-phenylpiperazin-1-yl)methyl)-1,3,4-oxadiazole]", "values": [{"measurement": "IC50", "setting": "hAChE", "result": "1.83 ± 0.076", "unit": "µM"}, {"measurement": "IC50", "setting": "hBChE", "result": "> 10", "unit": "µM"}]}
{"smiles": "c1ccc(CN2CCN(Cc3nnc(-c4ccccc4)o3)CC2)cc1", "note": "[5AB, 2-((4-Benzylpiperazin-1-yl)methyl)-5-phenyl-1,3,4-oxadiazole]", "values": [{"measurement": "inhibition at 10 µM", "setting": "PAS of hAChE", "result": "18.4 ± 1.07", "unit": "%"}, {"measurement": "inhibition at 50 µM", "setting": "PAS of hAChE", "result": "29.5 ± 1.33", "unit": "%"}, {"measurement": "IC50", "setting": "hBACE-1", "result": "> 10", "unit": "µM"}, {"measurement": "% RSA of DPPH ± SEM at 25 μM", "setting": "[1]", "result": 42.24, "unit": "%"}, {"measurement": "IC50", "setting": "hAChE", "result": "1.79 ± 0.032", "unit": "µM"}, {"measurement": "IC50", "setting": "hBChE", "result": "> 10", "unit": "µM"}]}
{"smiles": "c1ccc(-c2nnc(CN3CCN(C(c4ccccc4)c4ccccc4)CC3)o2)cc1", "note": "[5AC, 2-((4-Benzhydrylpiperazin-1-yl)methyl)-5-phenyl-1,3,4-oxadiazole]", "values": [{"measurement": "IC50", "setting": "hBACE-1", "result": "5.62 ± 0.073", "unit": "µM"}, {"measurement": "IC50", "setting": "hAChE", "result": "3.15 ± 0.0202", "unit": "µM"}]}
{"smiles": "c1ccc(-c2nnc(CN3CCN(c4ccccn4)CC3)o2)cc1", "note": "[5AD, 2-Phenyl-5-((4-(pyridin-2-yl)piperazin-1-yl)methyl)-1,3,4-oxadiazole]", "values": [{"measurement": "IC50", "setting": "hBACE-1", "result": "1.34 ± 0.078", "unit": "µM"}, {"measurement": "catalase (CAT) level in brain homogenate", "setting": "catalase (CAT)", "result": "increase in catalase"}, {"measurement": "% RSA of DPPH ± SEM at 25 μM", "setting": "[1]", "result": 44.35, "unit": "%"}, {"measurement": "Papp", "setting": "in vitro", "result": "6.5 ± 0.072", "unit": "×10⁻⁶ cm/s"}, {"measurement": "IC50", "setting": "hAChE", "result": "0.103 ± 0.0172", "unit": "µM"}, {"measurement": "AChE level in hippocampal brain homogenate", "setting": "AChE", "result": "decrease in AChE"}, {"measurement": "IC50", "setting": "hBChE", "result": "≥ 10", "unit": "µM"}, {"measurement": "learning and memory", "setting": "Swiss albino mice", "result": "significant improvement in learning and memory"}]}
{"smiles": "O=[N+]([O-])c1ccc(N2CCN(Cc3nnc(-c4ccccc4)o3)CC2)cc1", "note": "[5AF, 2-((4-(4-Nitrophenyl)piperazin-1-yl)methyl)-5-phenyl-1,3,4-oxadiazole]", "values": [{"measurement": "IC50", "setting": "hBACE-1", "result": "6.242 ± 0.03", "unit": "µM"}, {"measurement": "IC50", "setting": "hAChE", "result": "1.87 ± 0.0441", "unit": "µM"}, {"measurement": "IC50", "setting": "hBChE", "result": "> 10", "unit": "µM"}]}
{"smiles": "Cc1ccc(N2CCN(Cc3nnc(-c4ccccc4)o3)CC2)cc1", "note": "[5AG, 2-Phenyl-5-((4-(p-tolyl)piperazin-1-yl)methyl)-1,3,4-oxadiazole]", "values": [{"measurement": "IC50", "setting": "hBACE-1", "result": "3.81 ± 0.039", "unit": "µM"}, {"measurement": "% RSA of DPPH ± SEM at 25 μM", "setting": "[1]", "result": "36.30 ± 2.5", "unit": "%"}, {"measurement": "IC50", "setting": "hAChE", "result": "2.59 ± 0.0169", "unit": "µM"}, {"measurement": "IC50", "setting": "hBChE", "result": "> 10", "unit": "µM"}]}
{"smiles": "COc1ccc(N2CCN(Cc3nnc(-c4ccccc4)o3)CC2)cc1", "note": "[5AH, 2-((4-(4-Methoxyphenyl)piperazin-1-yl)methyl)-5-phenyl-1,3,4-oxadiazole]", "values": [{"measurement": "inhibition at 10 µM", "setting": "PAS of hAChE", "result": "19.2 ± 1.81", "unit": "%"}, {"measurement": "inhibition at 50 µM", "setting": "PAS of hAChE", "result": "26.7 ± 1.34", "unit": "%"}, {"measurement": "IC50", "setting": "hBACE-1", "result": "1.685 ± 0.012", "unit": "µM"}, {"measurement": "% RSA of DPPH ± SEM at 25 μM", "setting": "[1]", "result": "38.78 ± 2.9", "unit": "%"}, {"measurement": "Papp", "setting": "in vitro", "result": "5.8 ± 0.175", "unit": "×10⁻⁶ cm/s"}, {"measurement": "IC50", "setting": "hAChE", "result": "1.48 ± 0.0719", "unit": "µM"}, {"measurement": "IC50", "setting": "hBChE", "result": "> 10", "unit": "µM"}]}
{"smiles": "Cc1ccc(CN2CCN(Cc3nnc(-c4ccccc4)o3)CC2)cc1", "note": "[5AI, 2-((4-(4-Methylbenzyl)piperazin-1-yl)methyl)-5-phenyl-1,3,4-oxadiazole]", "values": [{"measurement": "inhibition at 10 µM", "setting": "PAS of hAChE", "result": "17.7 ± 1.26", "unit": "%"}, {"measurement": "IC50", "setting": "hBACE-1", "result": "0.392 ± 0.021", "unit": "µM"}, {"measurement": "% RSA of DPPH ± SEM at 25 μM", "setting": "[1]", "result": "36.24 ± 2.6", "unit": "%"}, {"measurement": "IC50", "setting": "hAChE", "result": "1.797 ± 0.0081", "unit": "µM"}]}
{"smiles": "O=C1O[C@H]([C@@H](O)CO)C(O)=C1O", "note": "[Ascorbic acid, reference compound]", "values": [{"measurement": "% RSA of DPPH ± SEM at 25 μM", "setting": "[1]", "result": "59.65 ± 2.3", "unit": "%"}]}
